The target in this test is T1, CCK-A receptor (Rattus norvegicus, UniProt P30551).
T1 construct: from tissue; host or cells: pancreas membranes of Sprague-Dawley rat
T1 sequence (P30551 1-444): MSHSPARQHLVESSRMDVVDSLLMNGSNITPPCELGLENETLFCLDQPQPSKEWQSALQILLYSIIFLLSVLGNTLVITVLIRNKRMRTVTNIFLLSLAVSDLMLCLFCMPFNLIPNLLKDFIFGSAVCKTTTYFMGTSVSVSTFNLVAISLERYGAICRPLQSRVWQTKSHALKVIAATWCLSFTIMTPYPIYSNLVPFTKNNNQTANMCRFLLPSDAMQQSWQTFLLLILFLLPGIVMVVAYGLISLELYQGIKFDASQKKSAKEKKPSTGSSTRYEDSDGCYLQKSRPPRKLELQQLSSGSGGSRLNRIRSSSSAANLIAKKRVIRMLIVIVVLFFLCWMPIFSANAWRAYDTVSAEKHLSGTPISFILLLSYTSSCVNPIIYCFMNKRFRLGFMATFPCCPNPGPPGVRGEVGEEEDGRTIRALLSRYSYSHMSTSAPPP
Briefly: CCK-A receptor binding assay (displacement of 3H-L-364,718 from rat pancreas membranes). On the set-up: species or system Sprague-Dawley rat. Conditions: 3H-L-364,718 0.2 nM, 37° C., 30 min, read-out: In vitro Binding Data IC50 CCK. Summed up: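 Rat pancreas membranes incubated 30 min at 37 °C with 0.2 nM 3H-L-364,718 in 50 mM Tris pH 7.7, 5 mM MgCl2, 5 mM DTT, 0.14 mg/ml bacitracin, 2 mg/ml BSA. Nonspecific binding defined by 300 nM unlabeled L-364,718; rapid filtration and scintillation counting, triplicates.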
In general terms: In a radioligand displacement assay an active substance lowers the binding of a labelled ligand.

Where only a bound is given, the exact number is not on record here.

Usually IC50 stands for the point on the concentration scale where inhibition reaches its midpoint.

In the case of `CC(C)C[C@H](NC(=O)[C@H]1Cc2c([nH]c3ccccc23)CN1C(=O)Nc1cccc(F)c1)C(=O)N[C@@H](CC(=O)O)C(N)=O` [Example 65], the IC50 was more than 100 µM.
For `CC(C)C[C@H](NC(=O)[C@H]1Cc2c([nH]c3ccccc23)CN1C(=O)Nc1ccc(Cl)c(Cl)c1)C(=O)N[C@@H](CC(=O)O)C(N)=O` [Example 66], the IC50 came to 24 µM.
Turning to `CC(C)C[C@H](NC(=O)[C@H]1Cc2c([nH]c3ccccc23)CN1C(=O)Nc1cccc2ccccc12)C(=O)N[C@@H](CC(=O)O)C(N)=O` [Example 67, N-[(3R)-2-(1-naphthylcarbamoyl)-1,2,3,4-tetrahydro-9H-pyrido[3,4-b]indole-3-carboxyl]-L-leucyl-L-aspartic acid amide], the half-inhibitory concentration (IC50) stood at 100 µM.

These data come from patent publication US5162336A, “Tetrahydro-pyrido-indoles as cholecystokinin and gastrin antagonists” (Rhone-Poulenc Rorer Pharmaceuticals Inc., priority 1990, dated 1992).
